For assay [1], the target named is HDAC11 (Homo sapiens, UniProt Q96DB2). More on the design: method as in PMID 32608981. To be noted: read-out: HDAC11 IC50; compiled data, ref [13]; cited from earlier work.
Assay [2] has as its system MCF7 breast cancer cell line. Put plainly: MTT cellular viability assay, MCF7. The format is cell-based. To be noted: Homo sapiens, 96 h. Here is the method: The human A2780 ovarian (#93112519) and MCF-7 breast (#86012803) cancer cell lines were obtained from the European Cell Culture Collection (ECACC; Salisbury, UK). The human cardiac ventricular AC16 cell line (#SCC109) was obtained from Merck/Millipore (UK). The A2780 and MCF-7 cell lines were maintained in RPMI-1640 medium and the AC16 cell line was maintained in DMEM/F12 medium. Culture medium of all three cell lines was supplemented with 10% heat-inactivated foetal bovine serum (FBS) and 2 mM L-glutamine, with the cells maintained in a humidified 5% CO2 atmosphere at 37 °C. The media was changed every 72h and the cells passaged via trypsinisation (Trypsin EDTA, 0.25%) before reaching confluency.
Cytotoxicity of each compound against the cell lines was assessed using the MTT assay. Cells were seeded in three replicates into 96-well plates at a density of 2 × 10^3/well for 24h to facilitate cell attachment. Media was replaced with that containing either test compound (0–10µM) for A2780 and MCF7 cell lines, single concentration (10 µM) test compound for AC16 cell line, or drug vehicle (dimethyl sulphoxide; DMSO) and the cells incubated for a further 96 h at 37 °C in a humidified 5% CO2 atmosphere. […] Chemosensitivity was thereafter assessed using a standard 3-[4, 5-dimethylthiazolyl]-2,5-diphenyltetrazolium bromide (MTT) assay, with the optical density determined at 540 nm as an indicator of cellular viability.

Assay [3] deals with HeLa nuclear KDACs. Also noted: method as in Beckers et al.[46]. To be noted: ref Beckers et al.[46]; read-out: HDAC Inhibition IC50; cited from earlier work.
For assay [4], the system named is class I HDACs. Also noted: method as in PMID 31938461. To be noted: ref [91]; cited from earlier work.

Chain of HDAC11 (Q96DB2 whole entry): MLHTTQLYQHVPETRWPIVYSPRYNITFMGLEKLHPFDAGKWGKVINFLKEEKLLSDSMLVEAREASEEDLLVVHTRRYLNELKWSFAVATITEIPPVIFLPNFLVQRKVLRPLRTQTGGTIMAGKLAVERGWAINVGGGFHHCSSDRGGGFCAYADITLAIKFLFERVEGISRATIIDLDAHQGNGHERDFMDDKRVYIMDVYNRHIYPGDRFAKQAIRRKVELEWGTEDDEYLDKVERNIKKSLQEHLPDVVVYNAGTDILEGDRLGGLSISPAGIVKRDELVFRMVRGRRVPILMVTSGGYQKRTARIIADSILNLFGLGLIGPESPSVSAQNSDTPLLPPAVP

`CC(=O)Nc1ccc(C(=O)Nc2ccccc2N)cc1` [Compound 2, Tacedinaline]: the results for the IC50 in assay [1], in assay [2] and in assay [3] were above 10 µM, 11.6 ± 1.1 µM and 8.5 ± 5.4 µM, respectively.
On to `Nc1cc(F)ccc1NC(=O)c1ccc(CNC(=O)/C=C/c2cccnc2)cc1` [chidamide], for which the 50% inhibitory concentration (IC50) in assay [4] is 0.11 to 0.33 µM.

Source of the values: PMC12217109, “Development of novel benzamide class I selective lysine deacetylase inhibitors as potent anticancer agents” (Journal of Enzyme Inhibition and Medicinal Chemistry, 2025).
